Assay results reported in ChEMBL document CHEMBL3228046, “A structural modification study of procarbazine” (1979).
Activity calls are given as the source filed them. No cut-off for these calls is given here.

Columns and labels:
[1] = system: L1210; assay: Antineoplastic activity against mouse L1210 cells allografted in BDF1 mouse administered qd for 1 to 9 days starting 24 hrs after tumor cell implantation; assay type: functional, cell-based
[2] = system: KB; assay: Antineoplastic activity against human KB cells; assay type: functional, cell-based
[3] = system: P388; assay: Antineoplastic activity against mouse P388 cells allografted in BDF1 mouse administered qd for 1 to 9 days starting 24 hrs after tumor cell implantation; assay type: functional, cell-based
[4] = system: L1210; assay: Antineoplastic activity against mouse L1210 cells allografted in BDF1 mouse at 50 mg/kg administered qd for 1 to 9 days starting 24 hrs after tumor cell implantation relative to control; assay type: functional
[5] = system: P388; assay: Antineoplastic activity against mouse P388 cells allografted in BDF1 mouse at 800 mg/kg administered qd for 1 to 9 days starting 24 hrs after tumor cell implantation relative to control; assay type: functional

| SMILES | Activity [1] | Activity [2] | Activity [3] | T/C [4] | T/C [5] |
| --- | --- | --- | --- | --- | --- |
| CO/[N+](=C\c1ccccc1)Cc1ccc(C(=O)NC(C)C)cc1 | inactive | inactive | inactive | – | – |
| CC(C)NC(=O)c1ccc(CONC(=O)OCc2ccccc2)cc1 | inactive | inactive | inactive | – | – |
| CNC(=O)Nc1ccc(C(=O)NC(C)C)cc1 | – | – | – | 132 | – |
| CC(C)NC(=O)c1ccc(CON(C)C(=O)OCc2ccccc2)cc1 | inactive | inactive | inactive | – | – |
| CC(C)NC(=O)c1ccc(CBr)cc1 | – | Active | – | – | – |
| CNNCc1c[nH]c(=O)[nH]c1=O | inactive | inactive | inactive | – | – |
| CNC(=S)NCc1ccc(C(=O)NC(C)C)cc1 | inactive | inactive | inactive | – | – |
| CNNCc1ccc(/C=N/NC(N)=S)cc1 | inactive | inactive | inactive | – | – |
| CNC(=O)NCc1ccc(C(=O)NC(C)C)cc1 | inactive | inactive | inactive | – | – |
| CONCc1ccc(C(=O)NC(C)C)cc1 | inactive | inactive | inactive | – | – |
| CC(C)NC(=O)c1ccc(C/[N+]([O-])=C/c2ccccc2)cc1 | – | – | – | – | 153 |
| CNC(=S)Nc1ccc(C(=O)NC(C)C)cc1 | inactive | inactive | inactive | – | – |
| CNOCc1ccc(C(=O)NC(C)C)cc1 | inactive | inactive | inactive | – | – |
